# Test system: Rattus norvegicus
# Experiment: Antiinflammatory activity in rat assessed as inhibition of carrageenan-induced foot edema at 100 mg/kg, po administered 1 hr before carrageenan challenge measured after 3 to 3.5 hrs relative to untreated control
# Format: functional
row,SMILES,inhibition in vivo at 100 mg/kg [%]
1,Nc1nccc(-c2cccnc2)n1,32
2,CN(C)c1nccc(C(C)(C)C)n1,18
3,Nc1ncc2c(n1)-c1ccccc1CC2,32
4,Cc1cnc(N)nc1-c1ccccc1,34
5,Cc1ncc(C)c(-c2ccccc2)n1,12
6,Cc1cncnc1-c1ccccc1,48
7,c1cc(-c2ccncn2)ccn1,45
8,Nc1nccc(-c2ccccn2)n1,17
9,N#CNc1nccc(-c2ccncc2)n1,< 5
10,CC(=O)Nc1nccc(-c2ccncc2)n1,52
11,CCOC(=O)Nc1nccc(-c2ccncc2)n1,31
12,Nc1nccc(-c2ccncc2)n1 [listing 1 of 2 here],18
13,NC(=O)Nc1nccc(-c2ccncc2)n1,12
14,Nc1ncc(-c2ccccc2)c(-c2ccncc2)n1,48
15,Cc1cncnc1-c1ccncc1,50
16,CC(C)(C)C1CCc2nc(N)ncc2C1 (stereo unspecified),41
17,Cc1ncc2c(n1)CCC(C(C)(C)C)C2 (stereo unspecified),< 5
18,Cc1ncc2c(n1)CCN(C)C2,45
19,CN1CCc2nc(N)ncc2C1,< 5
20,CN1CCc2ncncc2C1,50
21,Cc1ncc2c(n1)-c1ccccc1CC2,< 5
22,c1ccc2c(c1)CCc1cncnc1-2,32
23,Cc1ncc2c(n1)-c1ccccc1CCC2,< 5

row,SMILES,inhibition in vivo at 100 mg/kg [%]
1,Cc1ncc2c(n1)-c1ccccc1C2,< 5
2,COc1ccc(-c2cnc(C)nc2-c2ccc(OC)cc2)cc1,< 5
3,CC(C)(C)c1nc(N)ncc1-c1ccccc1,46
4,Cc1ncc(-c2ccccc2)c(C(C)(C)C)n1,22
5,CC(C)(C)c1ncncc1-c1ccccc1,48
6,CC(C)(C)c1nc(-c2ccccc2)ncc1-c1ccccc1,< 5
7,CC(C)(C)c1nc(NC#N)ncc1-c1ccccc1,< 5
8,CC(=O)N(C(C)=O)c1ncc(-c2ccccc2)c(C(C)(C)C)n1,22
9,CCOC(=O)Nc1ncc(-c2ccccc2)c(C(C)(C)C)n1,24
10,CC(C)(C)c1nc(NC(N)=O)ncc1-c1ccccc1,14
11,CC(=O)Nc1ncc(-c2ccccc2)c(C(C)(C)C)n1,29
12,CNc1ncc(-c2ccccc2)c(C(C)(C)C)n1,37
13,CC(C)(C)c1nc(NN)ncc1-c1ccccc1,< 5
14,CC(C)(C)c1nc(N)ncc1-c1ccc(Cl)cc1,25
15,CC(C)(C)c1nc(N)ncc1-c1cccc(C(F)(F)F)c1,8
16,CC(C)(C)c1nc(NC(=O)CCCC(=O)O)ncc1-c1ccccc1,5
17,CC(C)(C)c1ccnc(N)n1,32
18,CC(C)(C)c1ccnc(Nc2ccccc2)n1,21
19,CC(C)(C)c1ccnc(Cl)n1,< 5
20,CC(C)(C)c1ccnc(NCc2ccccc2)n1,14
21,CC(C)(C)c1ccnc(NCCc2ccccc2)n1,10
22,CC(C)(C)Nc1nccc(C(C)(C)C)n1,26
23,CNc1nccc(C(C)(C)C)n1,34

row,SMILES,inhibition in vivo at 100 mg/kg [%]
1,CC(C)(C)c1ccnc(S)n1,22
2,CSc1nccc(C(C)(C)C)n1,35
3,Nc1ncc2c(n1)CCCCCCCCCC2,< 5
4,c1ncc2c(n1)CCCCCCCCCC2,< 5
5,Cc1ncc2c(n1)CCCCCCCCCC2,< 5
6,Cc1nnc2c([n+]1[O-])CC(C(C)(C)C)CC2 (stereo unspecified),48
7,CC(C)(C)C1CCc2nnc[n+]([O-])c2C1 (stereo unspecified),36
8,CC(C)(C)C1CCc2nnc(-c3ccccc3)[n+]([O-])c2C1 (stereo unspecified),15
9,Cc1nnc2c(n1)CC(C(C)(C)C)CC2 (stereo unspecified),< 5
10,CC(C)(C)C1CCc2nncnc2C1 (stereo unspecified),49
11,Cc1ncnnc1-c1ccccc1,< 5
12,Cc1nc(-c2ccccc2)nnc1-c1ccccc1,< 5
13,CC(C)(C)c1c[n+]([O-])c(-c2ccccc2)nn1,35
14,Cc1nnc(C(C)(C)C)c[n+]1[O-],22
15,CC(C)(C)c1cnc(-c2ccccc2)nn1,38
16,Cc1ncc(C(C)(C)C)nn1,25
17,c1ccc2c(c1)CCCc1ncnnc1-2,< 5
18,c1ccc2c(c1)ccc1ncnnc12,< 5
19,Cc1nnc2c(ccc3ccccc32)n1,< 5
20,CCCCc1nnc2c(ccc3ccccc32)n1,< 5
21,c1ccc(-c2nnc3c(ccc4ccccc43)n2)cc1,< 5
22,c1ccc(-c2nccc(-c3ccncc3)n2)cc1,42

# Test system: Rattus norvegicus
# Experiment: Antiinflammatory activity in po dosed rat assessed as inhibition of carrageenan-induced foot edema compound administered 1 hr before carrageenan challenge measured after 3 to 3.5 hrs relative to untreated control
# Format: functional
row,SMILES,ED50 [mg/kg]
1,COc1ccc(-c2cnc(N)nc2-c2ccc(OC)cc2)cc1,85
2,Nc1nccc(-c2ccncc2)n1 [listing 2 of 2 here],38
3,Cc1nccc(-c2ccncc2)n1,47
4,CNc1nccc(-c2ccncc2)n1,49
5,c1ccc(-c2cncnc2-c2ccncc2)cc1,95
6,Cc1cnc(N)nc1-c1ccncc1,66
7,CC(C)(C)C1CCc2ncncc2C1 (stereo unspecified),58
8,CN(C)CC(=O)Nc1ncc(-c2ccccc2)c(C(C)(C)C)n1,84
9,CC(C)(C)c1ccnc(O)n1,43
10,Cc1c(-c2ccccc2)nnc[n+]1[O-],64
11,CC(C)(C)c1c[n+]([O-])cnn1,98
12,CCCCC1C(=O)N(c2ccccc2)N(c2ccccc2)C1=O [PHENYLBUTAZONE],25
13,Cc1ccc2c(-c3ccccc3)nc(=O)n(C(C)C)c2c1 [PROQUAZONE],5.2
